# In patent US20180037574A1, “COMPOUND, COMPOSITION, ORGANIC ELECTROLUMINESCENCE ELEMENT, AND ELECTRONIC DEVICE” (IDEMITSU KOSAN CO., LTD., priority 2015, published 2018):
# Test: Dissolution of host and dopant materials in toluene solution (visual check)
# Assay type: physicochemical
# Settings: 1.6-mass % toluene solution, host:dopant D-1 90:10 by mass, dissolved using ultrasonic waves, visually checked
# Description: The compound H-1 obtained in Synthesis Example 1 was used as a host material and the compound D-1 was used as a dopant material at a mixture ratio by mass of the compound H-1:the compound D-1 being 90:10 to prepare a 1.6-mass % toluene solution. The materials were dissolved using ultrasonic waves. […] The toluene solution was coated on the base substrate by spin coating to form a 50-nm thick film. After the film formation, an unnecessary portion was removed with toluene from the film. Subsequently, the film was heated and dried on a hot plate heated at 150 degrees C. to manufacture a coated laminate substrate on which an emitting layer was formed. It should be noted that all the operations for forming the emitting layer were conducted in a nitrogen-atmosphere glove box.
# In Comparative 1, manufacturing of an organic EL device was attempted in the same manner as in Example 1 except that a comparative compound H-a was used in place of the compound H-1 as the host material. However, the materials were not dissolved in the toluene solution but whitened to be unable to prepare a solution, so that an organic EL device was not manufactured.
smiles,measurement,value
c1ccc(-c2ccc(-c3nc(-n4c5ccccc5c5cc(-n6c7ccccc7c7ccccc76)ccc54)nc(-n4c5ccccc5c5cc(-n6c7ccccc7c7ccccc76)ccc54)n3)cc2)cc1 [H-a],solubility in toluene solution,not dissolved
